This is an account of results in publication PMC8462848, “Quinazolin-4(3H)-one based potential multiple tyrosine kinase inhibitors with excellent cytotoxicity” (Journal of Enzyme Inhibition and Medicinal Chemistry, 2021).

Each structure is given as a SMILES string.

T2 sequence (P35968 20-1356): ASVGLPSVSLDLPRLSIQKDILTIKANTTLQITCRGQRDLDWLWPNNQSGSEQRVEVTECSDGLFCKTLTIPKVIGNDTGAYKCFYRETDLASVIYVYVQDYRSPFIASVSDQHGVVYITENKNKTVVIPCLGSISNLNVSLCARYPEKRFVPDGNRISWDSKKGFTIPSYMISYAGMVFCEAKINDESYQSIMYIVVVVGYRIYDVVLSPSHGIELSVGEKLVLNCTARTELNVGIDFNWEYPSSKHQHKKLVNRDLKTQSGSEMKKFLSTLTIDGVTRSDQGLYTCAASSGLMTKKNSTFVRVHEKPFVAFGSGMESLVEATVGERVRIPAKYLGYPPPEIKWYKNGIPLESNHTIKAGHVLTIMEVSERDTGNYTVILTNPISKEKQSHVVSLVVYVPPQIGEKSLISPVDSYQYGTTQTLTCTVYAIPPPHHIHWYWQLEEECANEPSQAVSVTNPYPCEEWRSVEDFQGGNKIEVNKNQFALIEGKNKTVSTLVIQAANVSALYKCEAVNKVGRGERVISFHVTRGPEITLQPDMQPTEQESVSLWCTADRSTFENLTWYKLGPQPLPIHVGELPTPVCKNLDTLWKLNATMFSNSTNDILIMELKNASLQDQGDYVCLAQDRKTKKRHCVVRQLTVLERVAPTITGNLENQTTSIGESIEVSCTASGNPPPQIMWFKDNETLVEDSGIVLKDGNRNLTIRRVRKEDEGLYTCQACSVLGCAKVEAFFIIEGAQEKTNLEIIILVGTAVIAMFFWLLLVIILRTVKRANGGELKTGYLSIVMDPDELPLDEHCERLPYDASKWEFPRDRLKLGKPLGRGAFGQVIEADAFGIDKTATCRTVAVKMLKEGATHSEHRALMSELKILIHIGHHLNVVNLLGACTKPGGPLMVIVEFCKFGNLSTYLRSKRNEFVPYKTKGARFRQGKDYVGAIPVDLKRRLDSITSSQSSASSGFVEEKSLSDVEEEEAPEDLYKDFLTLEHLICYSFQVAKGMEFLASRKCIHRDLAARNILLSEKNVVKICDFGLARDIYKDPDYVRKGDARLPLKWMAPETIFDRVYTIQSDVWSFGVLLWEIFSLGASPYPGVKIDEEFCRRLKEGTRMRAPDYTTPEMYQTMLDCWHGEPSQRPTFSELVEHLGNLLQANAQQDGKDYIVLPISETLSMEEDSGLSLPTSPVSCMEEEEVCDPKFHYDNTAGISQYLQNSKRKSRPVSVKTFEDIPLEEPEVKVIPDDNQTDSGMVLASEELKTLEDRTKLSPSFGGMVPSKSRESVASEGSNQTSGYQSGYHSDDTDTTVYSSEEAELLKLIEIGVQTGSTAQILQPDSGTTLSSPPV
T4 sequence (P00533 25-1210): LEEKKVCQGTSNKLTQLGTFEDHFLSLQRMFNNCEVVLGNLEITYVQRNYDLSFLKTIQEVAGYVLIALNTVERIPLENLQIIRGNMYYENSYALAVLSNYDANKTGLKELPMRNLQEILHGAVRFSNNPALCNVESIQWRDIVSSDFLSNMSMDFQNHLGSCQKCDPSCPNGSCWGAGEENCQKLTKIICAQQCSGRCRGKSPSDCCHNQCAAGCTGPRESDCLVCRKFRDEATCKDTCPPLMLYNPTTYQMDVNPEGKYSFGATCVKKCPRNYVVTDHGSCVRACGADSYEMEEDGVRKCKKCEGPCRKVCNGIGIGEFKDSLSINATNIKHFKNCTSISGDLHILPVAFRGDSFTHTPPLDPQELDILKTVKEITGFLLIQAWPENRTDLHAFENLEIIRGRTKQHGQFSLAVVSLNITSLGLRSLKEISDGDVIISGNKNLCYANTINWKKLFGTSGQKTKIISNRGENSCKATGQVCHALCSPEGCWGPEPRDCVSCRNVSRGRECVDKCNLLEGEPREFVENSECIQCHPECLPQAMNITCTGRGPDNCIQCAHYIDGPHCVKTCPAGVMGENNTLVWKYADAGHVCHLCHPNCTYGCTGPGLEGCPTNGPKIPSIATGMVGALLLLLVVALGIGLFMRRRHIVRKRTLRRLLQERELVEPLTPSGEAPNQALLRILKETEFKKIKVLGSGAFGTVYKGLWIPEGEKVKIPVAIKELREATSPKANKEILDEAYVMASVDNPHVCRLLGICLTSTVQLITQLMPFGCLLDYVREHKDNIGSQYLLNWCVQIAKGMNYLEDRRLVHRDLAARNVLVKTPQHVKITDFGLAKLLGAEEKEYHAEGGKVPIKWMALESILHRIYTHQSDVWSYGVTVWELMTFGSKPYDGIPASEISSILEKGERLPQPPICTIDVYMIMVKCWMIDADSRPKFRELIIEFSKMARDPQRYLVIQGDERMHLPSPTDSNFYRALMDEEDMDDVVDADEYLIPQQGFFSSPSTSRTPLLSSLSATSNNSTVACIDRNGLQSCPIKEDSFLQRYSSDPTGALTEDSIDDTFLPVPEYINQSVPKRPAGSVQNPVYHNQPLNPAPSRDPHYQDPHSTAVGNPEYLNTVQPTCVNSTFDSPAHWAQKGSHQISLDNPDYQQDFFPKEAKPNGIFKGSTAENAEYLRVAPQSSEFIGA

In the first data set the test system is MCF7 (human breast adenocarcinoma) cells. The experiment in a line: MTT cytotoxicity assay, MCF7. Format: cell-based. The note with it: Homo sapiens, MCF7, mean ± SD of triplicate. As to the method:
(§1) The cytotoxicity of the synthesised quinazolin-4(3H)-ones was evaluated by MTT assay, as previously described. Two cancer cell lines, MCF7 (human breast adenocarcinoma) and A2780 (human ovary adenocarcinoma), were used in this study, which were obtained from the ATCC (Rockville, MD, USA). […] Additionally, compounds were prepared at the same medium to obtain serial dilutions (50, 25, […] and 0.1 µM). […] The media were aspirated, and the formazan crystals were solubilised by adding 150 µL DMSO. Absorbance was read on a multi-plate reader (BioRad) at […]. […] The data were obtained from triplicates and analysed using statistical software.
On the technique in general: Tetrazolium dyes change colour on reduction, which living cells bring about.
One may read the IC50 as the concentration at which inhibition is half-maximal. `CCOC(=O)CSc1nc2c(C)cc(Cl)cc2c(=O)n1Cc1ccccc1` [2j] returned an IC50 of 3790 ± 960 nM.

In another data set the target is T1, CDK2/CyclinA2 (Homo sapiens, UniProt P24941).
T1 construct: purchased #79599
Description: CDK2 Assay Kit, Kinase-Glo MAX luminescence. Format: biochemical. The note with it: mean ± SD of triplicate. On the technique in general: In Kinase-Glo more light means more ATP remaining.
Consider `CCOC(=O)CSc1nc2c(C)cc(Cl)cc2c(=O)n1Cc1ccccc1` [2j], for which half-maximal inhibition (IC50) was put at 862 ± 16 nM.

A further data set concerns the target T2, VEGFR2 (Homo sapiens, UniProt P35968).
T2 construct: purchased #40325
The experiment in a line: VEGFR2 kinase assay kit, Kinase-Glo MAX luminescence. Format: biochemical. The note with it: 0.01 µM; one experimental data; read-out: % Inhibition VEGFR-2. As for the experimental part:
(§2) The HER2/EGFR/VEGFR2 assay kit is designed to measure HER2/EGFR/VEGFR-2 inhibitory activity for screening and profiling applications, using Kinase-Glo® MAX as a detection reagent. The HER2/EGFR/VEGFR2 assay kit comes in a convenient 96-well format, with enough purified recombinant HER2/EGFR/VEGFR2 enzyme, HER2/EGFR/VEGFR2 substrate, ATP and kinase buffer 1 for 100 enzyme reactions. […] […] The quinazolin-4(3H)-ones were diluted in 10% DMSO and 5 μl of the dilution was added to a 50 μl reaction so that the final concentration of DMSO was 1% in all of the reactions. All of the enzymatic reactions were conducted at 30 °C for 40 min. The 50 μl reaction mixture contained 40 mM Tris, pH 7.4, 10 mM MgCl2, 0.1 mg/mL BSA, 1 mM DTT, 10 mM ATP, kinase substrate and the enzyme HER2 / EGFR / VEGFR2. After the enzymatic reaction, 50 μl of Kinase-Glo® MAX luminescence kinase assay solution was added to each reaction and the plates were incubated for 5 min at room temperature. Luminescence signal was measured using a Bio Tek Synergy 2 microplate reader (For detail enzyme assay protocol and the results, please see supplementary data).
In general, inhibition refers to the drop in the measured response relative to a control, in per cent. As to `CCOC(=O)CSc1nc2c(C)cc(Cl)cc2c(=O)n1Cc1ccccc1` [2j], the inhibition at 0.01 µM turned out to be 0.324%.

The same data set, now with this note: 0.1 µM; one experimental data; read-out: % Inhibition VEGFR-2.
As to `CCOC(=O)CSc1nc2c(C)cc(Cl)cc2c(=O)n1Cc1ccccc1` [2j], the inhibition at 0.1 µM was found to be 20.3%.

Still in this data set, the particulars now being: 1 µM; one experimental data; read-out: % Inhibition VEGFR-2.
Take `CCOC(=O)CSc1nc2c(C)cc(Cl)cc2c(=O)n1Cc1ccccc1` [2j]: the inhibition at 1 µM was 38.9%.

Staying with this data set, now noted: 10 µM; one experimental data; read-out: % Inhibition VEGFR-2.
As for `CCOC(=O)CSc1nc2c(C)cc(Cl)cc2c(=O)n1Cc1ccccc1` [2j], the inhibition at 10 µM was found to be 33.9%.

Staying with this data set, now noted: mean ± SD of triplicate.
For `CCOC(=O)CSc1nc2c(C)cc(Cl)cc2c(=O)n1Cc1ccccc1` [2j], the IC50 stood at 247 ± 15 nM.

In the next data set the target is T3, HER2 (Homo sapiens, UniProt P04626).
T3 construct: purchased #40721
T3 sequence (P04626 23-1255): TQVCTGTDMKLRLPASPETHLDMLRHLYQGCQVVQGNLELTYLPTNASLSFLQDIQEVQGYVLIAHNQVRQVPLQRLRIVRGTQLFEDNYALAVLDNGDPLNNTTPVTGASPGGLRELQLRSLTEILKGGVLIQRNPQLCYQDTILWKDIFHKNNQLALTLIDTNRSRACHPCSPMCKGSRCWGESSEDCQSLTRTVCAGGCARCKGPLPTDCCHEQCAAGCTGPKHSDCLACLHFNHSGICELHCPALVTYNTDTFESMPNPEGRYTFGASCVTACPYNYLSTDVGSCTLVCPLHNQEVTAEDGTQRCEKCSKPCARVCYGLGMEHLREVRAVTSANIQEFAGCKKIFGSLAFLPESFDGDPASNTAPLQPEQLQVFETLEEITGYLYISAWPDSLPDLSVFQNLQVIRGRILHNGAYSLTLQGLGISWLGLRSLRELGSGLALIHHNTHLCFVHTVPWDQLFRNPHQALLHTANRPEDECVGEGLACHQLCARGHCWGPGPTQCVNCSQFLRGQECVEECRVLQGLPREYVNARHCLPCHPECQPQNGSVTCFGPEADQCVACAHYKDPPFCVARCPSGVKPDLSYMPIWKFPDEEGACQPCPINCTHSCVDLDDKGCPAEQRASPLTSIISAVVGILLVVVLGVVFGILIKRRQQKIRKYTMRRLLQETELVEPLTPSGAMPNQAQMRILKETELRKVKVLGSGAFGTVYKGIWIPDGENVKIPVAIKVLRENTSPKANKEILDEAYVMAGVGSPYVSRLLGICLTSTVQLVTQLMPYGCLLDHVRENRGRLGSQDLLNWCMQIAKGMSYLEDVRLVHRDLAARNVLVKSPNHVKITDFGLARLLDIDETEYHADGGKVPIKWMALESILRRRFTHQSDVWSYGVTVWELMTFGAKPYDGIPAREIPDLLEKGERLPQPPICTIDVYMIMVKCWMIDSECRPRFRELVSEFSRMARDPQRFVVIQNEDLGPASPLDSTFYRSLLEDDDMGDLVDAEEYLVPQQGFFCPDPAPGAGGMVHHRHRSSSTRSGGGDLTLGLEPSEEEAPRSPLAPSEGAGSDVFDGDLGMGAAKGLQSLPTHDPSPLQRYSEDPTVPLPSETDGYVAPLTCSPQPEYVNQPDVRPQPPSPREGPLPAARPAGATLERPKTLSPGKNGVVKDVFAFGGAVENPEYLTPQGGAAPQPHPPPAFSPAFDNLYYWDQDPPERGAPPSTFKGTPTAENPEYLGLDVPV
Description: HER2 kinase assay kit, Kinase-Glo MAX luminescence. The note with it: 0.01 µM; one experimental data. Format: biochemical. As for the experimental part: as §2
On to `CCOC(=O)CSc1nc2c(C)cc(Cl)cc2c(=O)n1Cc1ccccc1` [2j], for which the inhibition at 0.01 µM turned out to be 12.3%.

Staying with this data set, now noted: 0.1 µM; one experimental data.
For `CCOC(=O)CSc1nc2c(C)cc(Cl)cc2c(=O)n1Cc1ccccc1` [2j], the inhibition at 0.1 µM is 47%.

Staying with this data set, now noted: 1 µM; one experimental data.
For `CCOC(=O)CSc1nc2c(C)cc(Cl)cc2c(=O)n1Cc1ccccc1` [2j], the inhibition at 1 µM turned out to be 82.4%.

The data set is the same for the next values; noted with them: 10 µM; one experimental data.
As to `CCOC(=O)CSc1nc2c(C)cc(Cl)cc2c(=O)n1Cc1ccccc1` [2j], the inhibition at 10 µM was 93.5%.

Staying with this data set, now noted: mean ± SD of triplicate.
Regarding `CCOC(=O)CSc1nc2c(C)cc(Cl)cc2c(=O)n1Cc1ccccc1` [2j], the IC50 turned out to be 343 ± 15 nM.

The target of a further data set is T1, CDK2/CyclinA2. The experiment in a line: CDK2 Assay Kit, Kinase-Glo MAX luminescence. Format: biochemical. The note with it: 0.01 µM; one experimental data. As to the method: The CDK2 Assay Kit is designed to measure CDK2/CyclinA2 activity for screening and profiling applications, using Kinase-Glo® MAX as a detection reagent. The CDK2 Assay Kit comes in a convenient 96-well format, with enough purified recombinant CDK2/CyclinA2 enzyme, CDK substrate peptide, ATP and kinase assay buffer for 100 enzyme reactions. […] […] The compounds were diluted in 10% DMSO and 5 μl of the dilution was added to a 50 μl reaction so that the final concentration of DMSO was 1% in all of the reactions. All of the enzymatic reactions were conducted at 30 °C for 40 min. The 50 μl reaction mixture contained 40 mM Tris, pH 7.4, 10 mM MgCl2, 0.1 mg/mL BSA, 1 mM DTT, 10 mM ATP, Kinase substrate and the enzyme (CDK2/CyclinA2). After the enzymatic reaction, 50 μl of Kinase-Glo® MAX Luminescence kinase assay solution was added to each reaction and the plates were incubated for 5 min at room temperature. Luminescence signal was measured using a Bio Tek Synergy 2 microplate reader.
Figure S1. Calculation of the IC20 Values of Protein Kinase Enzyme CDK2 for 2f
* All the kinase IC20 (µM) were calculated according to the above equations.
(1 picture or pasted object on this page, not shown here)
As to `CCOC(=O)CSc1nc2c(C)cc(Cl)cc2c(=O)n1Cc1ccccc1` [2j], the inhibition at 0.01 µM came out at 4.28%.

Staying with this data set, now noted: 0.1 µM; one experimental data.
For `CCOC(=O)CSc1nc2c(C)cc(Cl)cc2c(=O)n1Cc1ccccc1` [2j], the inhibition at 0.1 µM came to 40.5%.

The same data set, now with this note: 1 µM; one experimental data.
For the molecule `CCOC(=O)CSc1nc2c(C)cc(Cl)cc2c(=O)n1Cc1ccccc1` [2j], the inhibition at 1 µM came out at 37.8%.

The same data set, now with this note: 10 µM; one experimental data.
With `CCOC(=O)CSc1nc2c(C)cc(Cl)cc2c(=O)n1Cc1ccccc1` [2j], the inhibition at 10 µM was 83.7%.

Tested on in the next data set: not given
Test: not given
Conditions: not given
The term melting point denotes the temperature of the solid-liquid transition. Molecule `CCOC(=O)CSc1nc2c(C)cc(Cl)cc2c(=O)n1Cc1ccccc1` [2j] showed a melting point of 132 to 134 °C.

The test system of another data set is A2780 (human ovary adenocarcinoma) cells. The experiment in a line: MTT cytotoxicity assay, A2780. Format: cell-based. The note with it: Homo sapiens, A2780, mean ± SD of triplicate. As to the method:
as §1
Turning to `CCOC(=O)CSc1nc2c(C)cc(Cl)cc2c(=O)n1Cc1ccccc1` [2j], inhibition was half-maximal at 2680 ± 90 nM (IC50).

The next data set has as its target T4, EGFR (Homo sapiens, UniProt P00533).
T4 construct: purchased #40321
Description: EGFR kinase assay kit, Kinase-Glo MAX luminescence. Format: biochemical. The note with it: 0.01 µM; one experimental data. As for the experimental part:
as §2
On to `CCOC(=O)CSc1nc2c(C)cc(Cl)cc2c(=O)n1Cc1ccccc1` [2j], for which the inhibition at 0.01 µM turned out to be 22.2%.

Still in this data set, the particulars now being: 0.1 µM; one experimental data.
As to `CCOC(=O)CSc1nc2c(C)cc(Cl)cc2c(=O)n1Cc1ccccc1` [2j], the inhibition at 0.1 µM stood at 49.9%.

Staying with this data set, now noted: 1 µM; one experimental data.
Turning to `CCOC(=O)CSc1nc2c(C)cc(Cl)cc2c(=O)n1Cc1ccccc1` [2j], the inhibition at 1 µM amounted to 84.3%.

Staying with this data set, now noted: 10 µM; one experimental data.
Regarding `CCOC(=O)CSc1nc2c(C)cc(Cl)cc2c(=O)n1Cc1ccccc1` [2j], the inhibition at 10 µM was 90.2%.

The data set is the same for the next values; noted with them: mean ± SD of triplicate.
With `CCOC(=O)CSc1nc2c(C)cc(Cl)cc2c(=O)n1Cc1ccccc1` [2j], the IC50 came out at 813 ± 22 nM.
